Reference: patent US20030114354A1, “Polynucleotide encoding a novel potassium channel with homology to the ether-a-go-go family, HEAG2” (priority 2001, published 2003)
Each block holds one compound with its values, some of them ahead of it.

Legend:
Eag proteins = details: intracellular Ca++; read-out: half-maximal inhibition concentration; cited from earlier work
[1] = tested on: nigral dopaminergic neurons; details: gel foam implants in the striatum; cited from earlier work
Human lung fibroblasts = assay: Human lung fibroblast proliferation assay (Alamar Blue); type: cell-based; details: 3 days in basal medium
Description: Human lung fibroblasts are obtained from Clonetics (San Diego, Calif.) and maintained in growth media from Clonetics. Dermal microvascular endothelial cells are obtained from Cell Applications (San Diego, Calif.). For proliferation assays, the human lung fibroblasts and dermal microvascular endothelial cells can be cultured at 5,000 cells/well in a 96-well plate for one day in growth medium. The cells are then incubated for one day in 0.1% BSA basal medium. After replacing the medium with fresh 0.1% BSA medium, the cells are incubated with the test proteins for 3 days. Alamar Blue (Alamar Biosciences, Sacramento, Calif.) is added to each well to a final concentration of 10%. The cells are incubated for 4 hr. Cell viability is measured by reading in a CytoFluor fluorescence reader. For the PGE2 assays, the human lung fibroblasts are cultured at 5,000 cells/well in a 96-well plate for one day. […]

hEAG2 = target: T1, hEAG2 (Homo sapiens, UniProt Q8NCM2); assay: Whole cell electrophysiology of hEAG2 and GFP cotransfected CHO cells; type: cell-based
T1 construct: The complete open reading frame of HEAG2 cDNA was cloned into an Invitrogen native expression Gateway entry vector; expressed in transfected cells; host or cells: CHO cells, transient co-transfection with GFP DNA (Lipofectamine Plus)
T1 sequence (Q8NCM2 1-988): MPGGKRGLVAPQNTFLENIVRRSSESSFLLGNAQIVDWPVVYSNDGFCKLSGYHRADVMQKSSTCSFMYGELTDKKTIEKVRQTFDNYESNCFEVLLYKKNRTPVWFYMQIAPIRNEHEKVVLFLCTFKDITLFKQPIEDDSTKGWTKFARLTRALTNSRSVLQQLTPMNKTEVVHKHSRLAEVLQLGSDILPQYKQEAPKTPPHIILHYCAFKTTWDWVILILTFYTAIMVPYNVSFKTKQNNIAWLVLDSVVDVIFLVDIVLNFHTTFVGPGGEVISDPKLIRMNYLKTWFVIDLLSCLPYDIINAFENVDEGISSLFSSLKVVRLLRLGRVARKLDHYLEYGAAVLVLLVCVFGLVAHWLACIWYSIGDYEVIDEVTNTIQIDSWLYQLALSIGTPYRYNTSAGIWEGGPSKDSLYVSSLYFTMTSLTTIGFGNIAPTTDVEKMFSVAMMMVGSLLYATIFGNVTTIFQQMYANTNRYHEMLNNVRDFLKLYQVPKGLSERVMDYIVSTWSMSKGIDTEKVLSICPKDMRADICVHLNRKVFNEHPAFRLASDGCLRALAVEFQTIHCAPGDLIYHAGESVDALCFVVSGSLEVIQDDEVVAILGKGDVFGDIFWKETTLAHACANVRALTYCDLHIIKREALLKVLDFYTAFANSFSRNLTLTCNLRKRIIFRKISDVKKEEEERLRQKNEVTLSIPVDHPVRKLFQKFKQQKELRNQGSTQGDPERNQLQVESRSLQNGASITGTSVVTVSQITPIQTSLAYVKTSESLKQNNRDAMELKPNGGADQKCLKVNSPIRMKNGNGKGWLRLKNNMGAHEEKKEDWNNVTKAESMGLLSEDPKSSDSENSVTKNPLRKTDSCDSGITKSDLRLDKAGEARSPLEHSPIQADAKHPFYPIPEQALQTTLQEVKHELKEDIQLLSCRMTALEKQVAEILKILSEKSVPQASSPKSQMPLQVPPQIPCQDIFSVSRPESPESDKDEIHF
Description: CHO cells were plated in growth medium at 10% (1.2×10^5 cells/dish) and 20% (2.4×10^5 cells/dish) confluence in poly-lysine coated 35 mm dishes. After 24 hours, the growth medium was removed, and cells were rinsed with Optimem (Invitrogen # 31985-070), then refed 0.8 ml Optimem. Cells were transiently co-transfected with 0.5 ug hEAG2 DNA in the pDEST vector, and 0.5 ug of GFP DNA using Lipofectamine Plus (Invitrogen # 10964-013). Three hours post transfection, the transfection mix was removed, and cells were refed with 2 ml growth medium. Twenty four hours post transfection, cells were again refed 2 ml fresh growth medium. Cells were used in experiments 24-72 hrs post transfection. Control experiments were performed in CHO cells transiently transfected with 1 μg of GFP DNA. CHO growth medium is Iscove's medium (Invitrogen #12440)+10% FBS, 1× non-essential amino acids(Invitrogen #12383-014) and 1× HT Supplement (Invitrogen #11067-030). All chemicals were purchased from Sigma Chemicals, St. Louis Mo. The internal solution contained (in mM): KCl 130, MgCl2 1, CaCl2 1, HEPES 10, EGTA 10, and was titrated to a pH of 7.2. […] The bath solution contained (in mM) NaCl 140, KCl 4, MgCl2 1, CaCl2 1.8, HEPES 10, Glucose 10, and was titrated to a pH of 7.4. For some experiments the bath solution was modified by the addition of 1 or 5 mM BaCl2, by changing the concentration of MgCl2 to 0 or 10 mM or by reducing NaCl to 104 mM and increasing KCl to 40 mM. During data recording, cells were constantly superfused with bath solution delivered through a fused silica perfusion tip, internal diameter […]. Solution changes were accomplished through the use of a […]16 multichannel perfusion system from AutoMate Scientific, San Francisco Calif. Currents were recorded on an EPC-9 amplifier (HEKA Electronik, Lambrecht/Pfalz, Germany), controlled through the Pulse software package. Currents were sampled at 10 kHz and filtered at 3.3 kHz. Pipettes were constructed from thin walled borosilicate capillary tubing (Warner Instruments Corp., Hamden Conn.), and pulled to a resistance of 1.5-3 MΩ on a P-97 micropipette puller (Sutter Instrument Co., Novato Calif.). All experiments were conducted at 20° C. Following the establishment of a Gigaohm seal and whole cell access, cells were held at -80 mV. […] All stimulation protocols were applied at 0.1 Hz.

[2] = picogram quantities, female recipients; cited from earlier work

Compound: [Ca+2] [Ca++]
IC50 (Eag proteins): ~100 nM

Compound: FGF-2: Fibroblast growth factor 2 (basic FGF), comparator protein for the polypeptides of the invention
protection of nigral dopaminergic neurons from toxicity associated with MPTP exposure [1]: near complete protection
stimulation of growth of human lung fibroblasts, concentration showing stimulation (Human lung fibroblasts): 10 to 2500 ng/mL

activation rate of the current (hEAG2; Mg^++ free bath (MgCl2 0 mM)): much faster
activation rate of the current (hEAG2; increased bath Mg^++ (MgCl2 10 mM)): dramatically slowed
Compound: [Mg+2] [Mg^++, MgCl2]

Compound: C[C@@]12C=CC[C@H]1[C@@H]1CCC3=CC(=O)CC[C@]3(C)[C@H]1CC2 [androstadienone]
nervousness, tension and other negative feelings [2]: significant reduction

Compound: [Ba+2].[Cl-].[Cl-] [Ba^++, BaCl2]
steady state current (hEAG2; addition of Ba^++ to the extracellular solution (bath + 1 or 5 mM BaCl2), depolarization to +40 mV for 1 sec, 20° C): apparent reduction

tail reversal potential (hEAG2; increased extracellular K^+ (KCl 40 mM, NaCl 104 mM)): approximately −40 mV
Compound: [K+] [K^+, KCl]
